{
  "source": "patent US5607967A",
  "about": "“Treatment of alzheimer's disease with 5-(tetradecyloxy)-2-furan carboxylic acid” (Merck & Co., Inc., priority 1994, dated 1997)",
  "key": {"[1]": {"tested_on": "Muscarinic receptor agonist (Pilocarpine) induced catalepsy", "experiment": "Pilocarpine induced catalepsy (Bar method)", "assay_type": "in vivo, rat", "settings": "carrier pretreatment, 24 h later 16 mg/kg Pilocarpine", "procedure": "Catalepsy was determined by a modification of the Bar method (Undie and Friedman, 1988). A steel bar, 1.1 cm in diameter and 50 cm long, was suspended at a height of 10 cm above the working surface. Three sides of the bench around the bar were walled off with brown cardboard, and the linings on the bench surface were selected to be of the same color with the cardboard walls. The animal's hind limbs were freely placed on the bench, the fail laid out to the back, and the forelimbs placed over the bar. The length of time a rat stayed up on the bar was noted up to a preset cut-off point of 120 s. The time was counted off upon observing any of the following actions: (1) the animal came off, placing its two forepaws on the bench, (2) the animal climbed onto or over the bar with both hind limbs, (3) the animal initiated locomotion along or around the bar. Subsequently, time readings were translated into scores by awarding a score of 1 for each successfully completed 5 s on the bar. For each observation time, catalepsy scores were averaged for all the animals in a group to give the Mean Score of the group at that observation time. Further, the scores for each animal at all the observation times were added to give the total score for that animal. The mean of this last group of numbers was called the Mean Total Score of the group.\nCatalepsy scores were analyzed by computer in accordance with the statistical procedures outlined by Winer, B. J.: Statistical principles in experimental design. McGraw-Hill, New York, pp. 10-428, 1971. Generally, for a given set of comparisons, observations were subjected to an appropriate analysis of variance followed by two-tailed Dunnett or Student's t-tests to detect differences between treatment groups.\nRats were pretreated with 0.4 mg/kg TOFA or with carrier (S.C.). Twenty-four hours later, the rats were challenged with 16 mg/kg Pilocarpine, an agonist of the muscarinic cholinergic receptor, and the duration of catalepsy was monitored as described in Example 10."}, "GR/NER chimeric receptor": {"tested_on": "GR/NER chimeric receptor", "experiment": "Ligand dependent transcription assay, GR/NER chimeric receptor with MMTV-luciferase reporter", "assay_type": "cell-based, human", "procedure": "To search for putative ligands for the NER receptor, the chimeric receptor GR/NER was prepared. […] Chimeric receptors were prepared in which the amino terminal portion of the mouse glucocorticoid receptor (mGR) that includes the DNA binding domain was fused to the putative ligand binding domains of the nuclear receptor NER to form the respective chimeric receptor GR/NER. The cDNA sequences coding for amino acid residues Arg^155 and Glu^156 of the hNER receptor (Shinar et al., NER, a new member of a gene family encoding the steroid hormone nuclear receptor; GENE (in press) were convened to the Xho I restriction site, which site was later used for the ligation to the GR cDNA sequences that coded for the DNA binding domain. Thus, the amino acid residues Arg^155 and Glu^156 of the NER receptor were convened to amino acid residues Ser^155 and His^156.\nThe chimera was employed in ligand dependent transactivation assays with the reporter gene MMTV-luciferase, in which the luciferase cDNA is transcribed under the control of the MMTV promoter.\n(§1) Similar hybrid receptors GR/NER, GR/NUC and GR/PPAR, in identical expression plasmid backgrounds were prepared essentially as described for the construction of the GR/mPPAR and GR/NUC chimeric receptors in Schmidt et al., \"Identification of a new member of the steroid hormone receptor superfamily that is activated by a peroxisome proliferator and fatty acids,\" Mol. Endocrinol., 6(10):1634-41, 1992, and in Boie et al., \"Enantioselective activation of the peroxisome proliferator-activated receptor\", J. Biol. Chem. 268(8):5530-4, 1993.\n(§2) Briefly, the amino terminal portion of the mouse glucocorticoid receptor (mGR), that includes the DNA binding domain was fused to the putative ligand binding domains of the nuclear receptor NER, hNUC-I (Schmidt et al., 1992), mPPAR (Issenmann and Green, 1990) to form the respective chimeric receptors GR/NER, GR/NUC and GR/PPAR. The GR/NER chimeric receptor was constructed as described for the GR/NUC and GR/PPAR hybrid receptors (Schmidt et al., 1992; Boie et al). The cDNA sequences coding for amino acids Arg^155 and Glu^156 of the NER receptor were converted to the Xho I restriction site, that was later used for the ligation to the GR cDNA sequences that coded for the DNA binding domain. Thus, converting amino acid residues Arg^155 and Glu^156 of NER receptor to amino acid residues Ser^155 and His^156."}, "[2]": {"target": "T1, GR/PPAR chimeric receptor (Mus musculus, UniProt P23204)", "T1 construct": "COS cells, MMTV-luciferase", "T1 sequence (P23204 1-468)": "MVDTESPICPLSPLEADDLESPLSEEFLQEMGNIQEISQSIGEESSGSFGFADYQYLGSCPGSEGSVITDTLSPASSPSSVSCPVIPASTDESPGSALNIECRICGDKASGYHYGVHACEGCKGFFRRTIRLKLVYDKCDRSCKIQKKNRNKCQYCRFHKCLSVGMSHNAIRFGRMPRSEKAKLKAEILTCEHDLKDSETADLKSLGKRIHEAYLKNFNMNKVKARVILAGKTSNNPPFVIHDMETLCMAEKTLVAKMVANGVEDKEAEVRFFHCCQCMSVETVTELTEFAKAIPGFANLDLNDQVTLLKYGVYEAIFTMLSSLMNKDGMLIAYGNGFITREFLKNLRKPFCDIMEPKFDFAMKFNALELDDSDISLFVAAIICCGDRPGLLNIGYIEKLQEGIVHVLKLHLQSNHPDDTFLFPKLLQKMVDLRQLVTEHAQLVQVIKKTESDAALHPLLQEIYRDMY", "T1 sequence (P06537 1-792 partner)": "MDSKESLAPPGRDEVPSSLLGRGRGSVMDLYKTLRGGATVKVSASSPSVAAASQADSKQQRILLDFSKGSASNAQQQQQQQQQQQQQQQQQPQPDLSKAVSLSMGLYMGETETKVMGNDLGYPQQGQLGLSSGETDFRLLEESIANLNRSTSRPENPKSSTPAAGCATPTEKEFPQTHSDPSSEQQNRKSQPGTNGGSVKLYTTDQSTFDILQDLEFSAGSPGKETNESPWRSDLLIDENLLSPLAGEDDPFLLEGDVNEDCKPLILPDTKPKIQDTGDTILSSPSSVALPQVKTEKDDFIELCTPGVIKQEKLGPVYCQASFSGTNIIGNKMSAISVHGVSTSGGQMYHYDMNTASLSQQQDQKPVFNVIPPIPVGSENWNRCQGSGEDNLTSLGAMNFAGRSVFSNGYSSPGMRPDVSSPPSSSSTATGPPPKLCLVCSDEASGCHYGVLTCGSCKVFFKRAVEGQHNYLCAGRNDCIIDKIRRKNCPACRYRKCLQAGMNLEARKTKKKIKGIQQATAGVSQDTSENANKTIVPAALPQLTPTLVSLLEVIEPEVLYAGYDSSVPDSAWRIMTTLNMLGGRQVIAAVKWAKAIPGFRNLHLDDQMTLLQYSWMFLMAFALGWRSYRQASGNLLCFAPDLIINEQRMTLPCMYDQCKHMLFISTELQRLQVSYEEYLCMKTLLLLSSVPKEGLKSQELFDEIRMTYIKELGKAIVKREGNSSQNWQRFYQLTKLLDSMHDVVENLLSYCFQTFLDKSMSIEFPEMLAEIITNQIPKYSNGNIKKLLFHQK", "experiment": "Ligand dependent transcription assay, GR/PPAR chimeric receptor with MMTV-luciferase reporter", "assay_type": "cell-based", "procedure": "as §1, §2\nThe ligand transcription assay mediated by GR/PPAR in COS cells was performed as described in Example 4. The cells were treated with TOFA and Cerulenin at 0.1, 1, 10 and 100 μM."}, "PC12 cells": {"tested_on": "PC12 cells", "experiment": "Neurite differentiation of PC12 cells", "assay_type": "cell-based", "settings": "NGF alone (100 ng/mL), 4 days", "procedure": "To further study the influence of TOFA on the nervous system, we tested the effect of TOFA on the differentiation of PC12 cells. PC12 cells were plated at a density of approximately 100-200/mm^2 on collagen coated plates or dishes in RPMI medium supplemented with 10% horse serum, 5% fetal calf serum, […] streptomycin, 50 U/mL penicillin in a water saturated atmosphere of 95% air and 5% CO2, at 37° C. overnight. Medium was replaced with fresh RPMI containing 1.5% serum, 100 ng/mL NGF and the indicated concentration of TOFA or an equivalent volume of vehicle (DMSO) giving a final concentration of 0.1% DMSO.\nAt different time points during the treatment, cells were photographed or fixed with 10% formalin. Morphology was examined after four days of treatment with TOFA or vehicle (DMSO). The number of cells beating neurites and average length of neurites were determined with the aid of the Bioquant imaging system. […] However, as depicted in Table 6 below, NGF alone induced a 15% increase in the number of cells bearing neurites and these outgrowths reached a mean length of 20 μm. Treatment with NGF and TOFA increased the percentage of cells beating neurites to 78%. Maximal neurite generation is observed at a concentration of 10 μM TOFA.\nCells were treated with vehicle (0.1% DMSO) or various concentrations of TOFA in the presence of 100 ng/mL NGF for 4 days, and then fixed with 10% formalin. At least eighty cells from eight wells were analyzed in each group. The results are shown as the mean ±SEM. ^a p<0.01, versus vehicle by Dunnetts test."}},
  "data": [
    {"compound": "CC[C@@H]1C(=O)OC[C@@H]1Cc1cncn1C", "note": "[Pilocarpine, pilocarpine, reference compound]", "values": [
      {"measurement": "Catalepsy Duration", "setting": "[1]", "value": "27.3 ± 3.6", "unit": "s"}
    ]},
    {"compound": "Cc1cccc(Nc2cc(Cl)nc(SCC(=O)O)n2)c1C", "note": "[WY14643, reference compound]", "values": [
      {"measurement": "Expression mediated by GR/NER", "setting": "GR/NER chimeric receptor", "value": "not by the GR/NER chimera"},
      {"measurement": "Expression mediated by GR/PPAR", "setting": "[2]", "value": "activated expression"}
    ]},
    {"compound": "NGF: nerve growth factor", "values": [
      {"measurement": "Mean length of neurite outgrowths", "setting": "PC12 cells", "value": 20, "unit": "μm"},
      {"measurement": "Number of cells bearing neurites", "setting": "PC12 cells", "value": 15, "unit": "%"}
    ]}
  ]
}
